pEC50: −log10 of the molar value.
What was measured:
[1] = target: T1, DNA (cytosine-5)-methyltransferase 3A (Homo sapiens, UniProt Q9Y6K1); assay: Inhibition of human C-terminal DNMT3A at 32 uM after 1 hr by fluorescence assay
[2] = Antiproliferative activity against human KG1 cells after 2 to 4 days by ATPlite 1step luminescence assay; format: functional, cell-based; conditions: KG-1
[3] = system: HCT-116; assay: Antiproliferative activity against human HCT116 cells after 2 to 4 days by ATPlite 1step luminescence assay; format: functional, cell-based
[4] = Antiproliferative activity against human KARPAS299 cells after 2 to 4 days by ATPlite 1step luminescence assay; format: functional, cell-based; conditions: KARPAS-299
[5] = target: T1, DNA (cytosine-5)-methyltransferase 3A; assay: Inhibition of human C-terminal DNMT3A at 20 uM after 1 hr by fluorescence assay
[6] = target: T1, DNA (cytosine-5)-methyltransferase 3A; assay: Inhibition of human C-terminal DNMT3A after 1 hr by fluorescence assay
[7] = Chemical stability of the compound in DMSO by HPLC analysis; format: physicochemical
[8] = target: DNA (cytosine-5)-methyltransferase 1 (Homo sapiens) (UniProt P26358); assay: Inhibition of human His-DNMT1 using [methyl-3H]SAM as substrate at 100 uM after 2 hrs
Chain of DNA (cytosine-5)-methyltransferase 1 (Homo sapiens) (P26358 whole entry): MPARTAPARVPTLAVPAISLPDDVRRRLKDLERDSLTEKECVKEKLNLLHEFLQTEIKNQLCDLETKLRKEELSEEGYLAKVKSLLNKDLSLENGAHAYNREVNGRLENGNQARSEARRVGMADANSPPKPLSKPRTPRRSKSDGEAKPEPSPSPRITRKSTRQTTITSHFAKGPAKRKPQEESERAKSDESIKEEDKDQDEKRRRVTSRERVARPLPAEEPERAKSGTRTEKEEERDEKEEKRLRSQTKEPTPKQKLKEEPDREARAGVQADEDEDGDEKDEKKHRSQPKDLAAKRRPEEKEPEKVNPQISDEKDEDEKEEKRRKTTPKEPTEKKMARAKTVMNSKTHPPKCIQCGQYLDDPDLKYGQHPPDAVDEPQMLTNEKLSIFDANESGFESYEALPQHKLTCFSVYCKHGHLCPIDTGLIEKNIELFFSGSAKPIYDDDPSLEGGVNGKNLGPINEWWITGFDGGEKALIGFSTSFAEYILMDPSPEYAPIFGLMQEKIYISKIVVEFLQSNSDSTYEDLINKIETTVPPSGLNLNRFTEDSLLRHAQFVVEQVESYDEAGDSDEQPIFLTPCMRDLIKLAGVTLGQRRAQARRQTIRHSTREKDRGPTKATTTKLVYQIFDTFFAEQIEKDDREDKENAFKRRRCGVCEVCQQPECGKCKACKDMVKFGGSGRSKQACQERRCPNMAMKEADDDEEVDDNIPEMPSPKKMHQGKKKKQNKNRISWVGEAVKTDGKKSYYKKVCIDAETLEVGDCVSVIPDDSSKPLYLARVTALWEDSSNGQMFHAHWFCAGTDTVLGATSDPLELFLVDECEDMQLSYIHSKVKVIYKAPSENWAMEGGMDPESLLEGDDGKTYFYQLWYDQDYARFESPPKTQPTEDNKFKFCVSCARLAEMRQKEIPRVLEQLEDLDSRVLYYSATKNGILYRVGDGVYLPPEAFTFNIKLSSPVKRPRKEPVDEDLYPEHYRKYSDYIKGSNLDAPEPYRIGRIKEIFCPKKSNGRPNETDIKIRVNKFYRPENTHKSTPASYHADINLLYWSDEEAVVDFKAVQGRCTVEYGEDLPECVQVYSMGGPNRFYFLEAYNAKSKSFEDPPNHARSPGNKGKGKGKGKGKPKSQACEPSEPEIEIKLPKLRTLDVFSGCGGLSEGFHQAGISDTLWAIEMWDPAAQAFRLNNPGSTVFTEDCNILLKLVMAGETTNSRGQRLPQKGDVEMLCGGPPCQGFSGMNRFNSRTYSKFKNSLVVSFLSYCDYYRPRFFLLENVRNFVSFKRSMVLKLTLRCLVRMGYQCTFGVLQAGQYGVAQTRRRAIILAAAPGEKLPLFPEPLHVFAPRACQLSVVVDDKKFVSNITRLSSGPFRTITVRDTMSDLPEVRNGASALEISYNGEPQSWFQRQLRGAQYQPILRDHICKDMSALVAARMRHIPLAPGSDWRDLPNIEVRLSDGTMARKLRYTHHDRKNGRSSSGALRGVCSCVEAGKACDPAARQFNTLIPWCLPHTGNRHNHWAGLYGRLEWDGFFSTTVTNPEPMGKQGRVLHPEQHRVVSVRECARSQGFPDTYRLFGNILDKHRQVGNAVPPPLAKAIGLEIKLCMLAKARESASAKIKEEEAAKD

[9] = Chemical stability of the compound after 30 mins by LC-MS analysis in presence of glutathione; format: physicochemical; conditions: 0.5 h
[10] = target: DNA (cytosine-5)-methyltransferase 1 (Homo sapiens) (UniProt P26358); assay: Inhibition of human His-DNMT1 using [methyl-3H]SAM as substrate at 32 uM after 2 hrs

T1 sequence (Q9Y6K1 whole entry, looked up): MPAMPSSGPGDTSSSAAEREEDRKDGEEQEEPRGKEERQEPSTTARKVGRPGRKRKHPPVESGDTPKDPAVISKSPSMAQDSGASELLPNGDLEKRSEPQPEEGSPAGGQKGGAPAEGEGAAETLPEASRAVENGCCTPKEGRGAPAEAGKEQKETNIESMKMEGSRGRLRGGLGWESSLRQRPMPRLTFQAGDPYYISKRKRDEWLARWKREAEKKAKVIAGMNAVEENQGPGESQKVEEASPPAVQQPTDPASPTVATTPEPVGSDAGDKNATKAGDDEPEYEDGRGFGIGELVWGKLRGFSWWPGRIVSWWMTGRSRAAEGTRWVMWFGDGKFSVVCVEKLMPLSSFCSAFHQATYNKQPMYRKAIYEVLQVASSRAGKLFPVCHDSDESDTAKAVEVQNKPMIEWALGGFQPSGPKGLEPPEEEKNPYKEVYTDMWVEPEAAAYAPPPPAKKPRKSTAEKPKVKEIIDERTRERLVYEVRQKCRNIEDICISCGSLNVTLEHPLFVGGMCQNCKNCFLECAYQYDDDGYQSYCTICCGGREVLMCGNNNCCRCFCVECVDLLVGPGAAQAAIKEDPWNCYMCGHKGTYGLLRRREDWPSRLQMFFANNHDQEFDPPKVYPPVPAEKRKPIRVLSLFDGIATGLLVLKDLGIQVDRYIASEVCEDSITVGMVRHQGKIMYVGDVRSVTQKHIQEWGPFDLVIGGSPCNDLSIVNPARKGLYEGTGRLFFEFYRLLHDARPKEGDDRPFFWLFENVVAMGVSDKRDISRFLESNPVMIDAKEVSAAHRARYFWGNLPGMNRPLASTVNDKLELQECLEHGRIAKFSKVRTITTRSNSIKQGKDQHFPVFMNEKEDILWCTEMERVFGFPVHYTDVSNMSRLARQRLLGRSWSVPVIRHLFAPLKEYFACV

Row | Compound | inhibition [1] | inhibition [5] | also measured
1 | O=C(c1ccc(Cl)cc1)C(CSCc1ccco1)n1cnc2ccccc21 (stereo unspecified) | 55% |  | 
2 | CCSCC(C(=O)c1ccc(OC)cc1)n1cnc2ccccc21 (stereo unspecified) | 0% |  | pEC50 [2]: < 5.00; pEC50 [3]: < 5.00; pEC50 [4]: < 5.00
3 | COc1ccc(CSCC(C(=O)c2ccc(Cl)cc2)n2cnc3ccccc32)cc1 (stereo unspecified) | 34% |  | 
4 | CCSCC(Cn1cccn1)C(=O)c1ccc(Cl)cc1 (stereo unspecified) |  | 18% | 
5 | O=C(Cn1cnc2ccccc21)c1ccc(Cl)cc1 | 12% |  | 
6 | O=C(c1ccc(Cl)cc1)C(CSC1CCCCC1)n1cnc2ccccc21 (stereo unspecified) |  | 44% | 
7 | CC(C)SC(C(=O)c1ccc(Cl)cc1)n1cnc2ccccc21 (stereo unspecified) |  | 5% | 
8 | CCOCC(C(=O)c1ccc(Cl)cc1)n1cnc2ncnc(N)c21 (stereo unspecified) | 70% |  | pEC50 [6]: 5.68; Stability [7]: Unstable; inhibition [8]: 29%
9 | O=C(c1ccc(Cl)cc1)C(CSCc1ccccc1)n1cnc2ccccc21 (stereo unspecified) | 25% | 69% | 
10 | C=C(C(=O)c1ccc(Cl)cc1)n1cnc2ccccc21 | 81% |  | pEC50 [6]: 5.40; Stability [9]: Unstable
11 | O=C(c1ccc(Cl)cc1)C(SC1CCCCC1)n1cnc2ccccc21 (stereo unspecified) |  | 21% | 
12 | CCSCC(C(=O)c1ccc(Cl)cc1)n1cnc2c(N)ncnc21 (stereo unspecified) | 0% |  | 
13 | CCOCC(C(=O)c1ccc(Cl)cc1)n1cnc2ccccc21 (stereo unspecified) | 63% |  | 
14 | CCSCC(C(=O)c1ccc(Cl)cc1)n1cnc2ncnc(N)c21 (stereo unspecified) | 54% |  | 
15 | CCSCC(C(OC)c1ccc(Cl)cc1)n1cnc2ccccc21 (stereo unspecified) |  | 5% | 
16 | O=C(/C(=C/C=C/c1ccccc1)n1cnc2ccccc21)c1ccc(Cl)cc1 | 0% |  | Stability [7]: Stable
17 | CCOC(c1ccc(Cl)cc1)C(CSCC)n1cnc2ccccc21 (stereo unspecified) |  | 9% | 
18 | CCSCC(C(=O)c1ccccc1)n1cnc2ccccc21 (stereo unspecified) | 34% |  | 

Row | Compound | inhibition [1] | inhibition [5] | also measured
19 | O=C(c1ccc(Cl)cc1)C(CSCC1CCCC1)n1cnc2ccccc21 (stereo unspecified) | 36% |  | 
20 | O=C(c1ccc(Cl)cc1)C(CSCc1cccc([N+](=O)[O-])c1)n1cnc2ccccc21 (stereo unspecified) | 40% |  | 
21 | O=C(c1ccc(Cl)cc1)C(CSc1ncc[nH]1)n1cnc2ccccc21 (stereo unspecified) | 38% |  | 
22 | CCSCC(Cn1ccnc1)C(=O)c1ccc(Cl)cc1 (stereo unspecified) |  | 9% | 
23 | CC(C)(C)SCC(C(=O)c1ccc(Cl)cc1)n1cnc2ccccc21 (stereo unspecified) |  | 40% | 
24 | CN(C)/C=C(/C(=O)c1ccc(Cl)cc1)n1cnc2ccccc21 | 0% |  | Stability [7]: Stable
25 | CCSC(C(=O)c1ccc(Cl)cc1)n1cnc2ccccc21 (stereo unspecified) |  | 15% | 
26 | CCSCC(Cn1cnc2ccccc21)C(=O)c1ccc(Cl)cc1 (stereo unspecified) |  | 23% | 
27 | CCSCC(C(=O)c1ccc(Cl)cc1)n1ccnc1 (stereo unspecified) |  | 43% | 
28 | CCSCC(C(=O)c1ccc(Cl)cc1)n1cccn1 (stereo unspecified) |  | 17% | 
29 | CCSCC(C(=O)c1ccc(Cl)cc1)n1cnc2ccccc21 (stereo unspecified) | 45% | 70% | pEC50 [6]: 5.52; Stability [7]: Unstable; inhibition [10]: 70%; inhibition [8]: 22%
30 | CCSCC(C(O)c1ccc(Cl)cc1)n1cnc2ccccc21 (stereo unspecified) |  | 4% | 
31 | CC(C)(C)SC(C(=O)c1ccc(Cl)cc1)n1cnc2ccccc21 (stereo unspecified) |  | 10% | 
32 | O=C(c1ccc(Cl)cc1)C(CSCc1ncccn1)n1cnc2ccccc21 (stereo unspecified) | 43% |  | 
33 | CC(C)SCC(C(=O)c1ccc(Cl)cc1)n1cnc2ccccc21 (stereo unspecified) |  | 43% | 
34 | CCSCC(C(=O)c1ccc(Cl)c(Cl)c1)n1cnc2ccccc21 (stereo unspecified) | 38% |  | pEC50 [2]: 5.43; pEC50 [3]: 5.51; pEC50 [4]: < 5.00
35 | Cc1cc(Nc2ccc(NC(=O)c3ccc(Nc4ccnc5ccccc45)cc3)cc2)nc(N)n1 |  |  | pEC50 [2]: 5.36; pEC50 [3]: < 5.00; pEC50 [4]: 5.74
